pIC50: −log10 of the molar value.
Legend:
Assay type in all cases: cell-based
HL-60 (Leukemia) = assay: Cytotoxicity, MTT assay, HL-60; details: Homo sapiens; for inhibition at 10 µM: read-out: Cell Growth Inhibition (%)
Procedure: (§1) Compounds proposed in the present invention were evaluated for their cytotoxic effect against panel of six cancer cell line viz. HL-60 (Leukemia), PC-3 (Prostate), A-375 (Melanoma), MIAPaCa-2 (pancreatic), MCF-7 (Breast) and Caco-2 (Colon) using MTT assay. In each well of a 96-well plate, 3×10^3 cells were grown in 100 μL of medium. After 24 h, each test molecules were added to achieve a final concentration of 10 to 0.01 μmol/L, respectively. After 48 h of treatment, 20 μL of 2.5 mg/mL MTT (Organics Research, Inc.) solution in phosphate buffer saline was added to each well. After 48 h, supernatant was removed and formazan crystals were dissolved in 200 μL of DMSO. Absorbance was then measured at 570 nm using an absorbance plate reader (Bio-Rad Microplate Reader). Data are expressed as the percentage of viable cells in treated relative to non-treated conditions.

A-375 (Melanoma) = assay: Cytotoxicity, MTT assay, A-375; details: Homo sapiens; for inhibition at 10 µM: read-out: Cell Growth Inhibition (%)
Procedure: as §1

Caco-2 (Colon) = assay: Cytotoxicity, MTT assay, Caco-2; details: Homo sapiens; for inhibition at 10 µM: read-out: Cell Growth Inhibition (%)
Procedure: as §1

MIAPaCa-2 (pancreatic) = assay: Cytotoxicity, MTT assay, MIAPaCa-2; details: Homo sapiens, MIA PaCa-2, read-out: Cell Growth Inhibition (%)
Procedure: as §1

MCF-7 (Breast) = assay: Cytotoxicity, MTT assay, MCF-7; details: Homo sapiens; for inhibition at 10 µM: MCF7, 10 μM, read-out: Cell Growth Inhibition (%); for pIC50: MCF7
Procedure: as §1

PC-3 (Prostate) = assay: Cytotoxicity, MTT assay, PC-3; details: for inhibition at 10 µM: read-out: Cell Growth Inhibition (%)
Procedure: as §1

SMILES	inhibition at 10 µM (HL-60 (Leukemia)) [%]	inhibition at 10 µM (A-375 (Melanoma)) [%]	inhibition at 10 µM (Caco-2 (Colon)) [%]	inhibition at 10 µM (MIAPaCa-2 (pancreatic)) [%]	inhibition at 10 µM (MCF-7 (Breast)) [%]	inhibition at 10 µM (PC-3 (Prostate)) [%]	pIC50 (A-375 (Melanoma))	pIC50 (HL-60 (Leukemia))	pIC50 (Caco-2 (Colon))	pIC50 (MCF-7 (Breast))	pIC50 (PC-3 (Prostate))
Cc1oc2c(C3CCN(C)CC3O)c(O)cc(O)c2c(=O)c1C(O)c1ccc([N+](=O)[O-])cc1 (centres unmarked) [Compound 13, 5,7-Dihydroxy-3-(hydroxy(4-nitrophenyl)methyl)-8-(3-hydroxy-1-methylpiperidin-4-yl)-2-methyl-4H-chromen-4-one]	0	35.9	5.08	2.48	4.03	23.8					
Cc1cc(=O)c2c(O)cc(OCc3ccccc3)c(C3CCN(C)CC3O)c2o1 (centres unmarked) [Compound 2, 7-(benzyloxy)-5-hydroxy-8-(3-hydroxy-1-methylpiperidin-4-yl)-2-methyl-4H-chromen-4-one]	24.3	27.8	17.6	13.8	1.44	41					
Cc1cc(=O)c2c(O)cc(OCc3cccs3)c(C3CCN(C)CC3O)c2o1 (centres unmarked) [Compound 6, 7-((Thiophen-2-yl)methoxy)-5-hydroxy-8-(3-hydroxy-1-methylpiperidin-4-yl)-2-methyl-4H-chromen-4-one]	22.2	53.8	33.3	13.2	19.8	22.8	5.10				
Cc1cc(=O)c2c(O)cc(OCc3nc4ccccc4[nH]3)c(C3CCN(C)CC3O)c2o1 (centres unmarked) [Compound 10, 7-((1H-Benzo[d]imidazol-2-yl)methoxy)-5-hydroxy-8-(3-hydroxy-1-methylpiperidin-4-yl)-2-methyl-4H-chromen-4-one]								5.10			
CN1CCC(c2c(O)cc(O)c3c(=O)cc(/C=C/c4ccc(Cl)cc4)oc23)C(O)C1 (centres unmarked) [Compound 32, 2-(4-Chlorostyryl)-5,7-dihydroxy-8-(3-hydroxy-1-methylpiperidin-4-yl)-4H-chromen-4-one]							4.52	5.10	5.25	4.31	4.51
Cc1oc2c(C3CCN(C)CC3O)c(O)cc(O)c2c(=O)c1C(O)c1cccc(Cl)c1 (centres unmarked) [Compound 17, 3-((3-Chlorophenyl)(hydroxy)methyl)-5,7-dihydroxy-8-(3-hydroxy-1-methylpiperidin-4-yl)-2-methyl-4H-chromen-4-one]	22.2	34.9	4.42	1.52	5.01	31					
Cc1cc(=O)c2c(O)cc(OCc3ccco3)c(C3CCN(C)CC3O)c2o1 (centres unmarked) [Compound 5, 7-((Furan-2-yl)methoxy)-5-hydroxy-8-(3-hydroxy-1-methylpiperidin-4-yl)-2-methyl-4H-chromen-4-one]	31.9	36.8	16.9	6.61	5.73	14.1					
Cc1oc2c(C3CCN(C)CC3O)c(O)cc(O)c2c(=O)c1C(O)c1c(F)cccc1Cl (centres unmarked) [Compound 21, 3-((2-Chloro-6-fluorophenyl)(hydroxy)methyl)-5,7-dihydroxy-8-(3-hydroxy-1-methylpiperidin-4-yl)-2-methyl-4H-chromen-4-one]	25.4	20.8	5.94	8.58	13.6	72.5					
Cc1oc2c(C3CCN(C)CC3O)c(O)cc(O)c2c(=O)c1C(O)c1ccc(Cl)cc1 (centres unmarked) [Compound 14, 3-((4-Chlorophenyl)(hydroxy)methyl)-5,7-dihydroxy-8-(3-hydroxy-1-methylpiperidin-4-yl)-2-methyl-4H-chromen-4-one]	1.93	34.2	2.83	14.8	5.91	41		4.96			
Cc1cc(=O)c2c(O)cc(OCc3ccc(Br)cc3)c(C3CCN(C)CC3O)c2o1 (centres unmarked) [Compound 4, 7-(4-Bromobenzyloxy)-5-hydroxy-8-(3-hydroxy-1-methylpiperidin-4-yl)-2-methyl-4H-chromen-4-one]	26.9	45.5	13	13.2	14	17.1					
CN1CCC(c2c(O)cc(O)c3c(=O)cc(/C=C/c4cccc(Cl)c4)oc23)C(O)C1 (centres unmarked) [Compound 28, 2-(3-Chlorostyryl)-5,7-dihydroxy-8-(3-hydroxy-1-methylpiperidin-4-yl)-4H-chromen-4-one]	24.3	65.9	27.5	40.3	80.4	53.7	5.40			5.70	5.00
Cc1cc(=O)c2c(O)cc(OC(=O)c3ccco3)c(C3CCN(C)CC3O)c2o1 (centres unmarked) [Compound 11, 5-Hydroxy-8-(3-hydroxy-1-methylpiperidin-4-yl)-2-methyl-4-oxo-4H-chromen-7-yl furan-2-carboxylate]	80.2	11.2	1.96	16.1	2.86	15.1					
COc1ccc(COc2cc(O)c3c(=O)cc(C)oc3c2C2CCN(C)CC2O)cc1 (centres unmarked) [Compound 3, 7-(4-Methoxybenzyloxy)-5-hydroxy-8-(3-hydroxy-1-methylpiperidin-4-yl)-2-methyl-4H-chromen-4-one]	22.8		8.43	15.7	15.6	35.2					
Cc1cc(=O)c2c(O)cc(OCc3ccc([N+](=O)[O-])cc3)c(C3CCN(C)CC3O)c2o1 (centres unmarked) [Compound 8, 7-(4-Nitrobenzyloxy)-5-hydroxy-8-(3-hydroxy-1-methylpiperidin-4-yl)-2-methyl-4H-chromen-4-one]	14.4	37.5	13.6	12.4	39.3	23					
Cc1oc2c(C3CCN(C)CC3O)c(O)cc(O)c2c(=O)c1C(O)c1c(Cl)cccc1Cl (centres unmarked) [Compound 20, 3-((2,6-dichlorophenyl)(hydroxy)methyl)-5,7-dihydroxy-8-(3-hydroxy-1-methylpiperidin-4-yl)-2-methyl-4H-chromen-4-one]											5.30
CN1CCC(c2c(O)cc(O)c3c(=O)cc(/C=C/c4ccccc4)oc23)C(O)C1 (centres unmarked) [Compound 31, 2-styryl-5,7-dihydroxy-8-(3-hydroxy-1-methylpiperidin-4-yl)-4H-chromen-4-one]							5.36	6.00	5.43	4.51	4.24
Cc1cc(=O)c2c(O)cc(OCc3ccccc3Br)c(C3CCN(C)CC3O)c2o1 (centres unmarked) [Compound 9, 7-(2-Bromobenzyloxy)-5-hydroxy-8-(3-hydroxy-1-methylpipetidin-4-yl)-2-methyl-4H-chromen-4-one]	3.05	58.6	35.1	29.7	45.4	31.7	4.92				
Cc1cc(=O)c2c(O)cc(OC/C=C/c3ccccc3)c(C3CCN(C)CC3O)c2o1 (centres unmarked) [Compound 7, 7-(Cinnamyloxy)-5-hydroxy-8-(3-hydroxy-1-methylpiperidin-4-yl)-2-methyl-4H-chromen-4-one]	21	21.8	9.49	11.2	7.02	18.3					
Cc1cc(=O)c2c(O)cc(OC(=O)c3ccccc3C)c(C3CCN(C)CC3O)c2o1 (centres unmarked) [Compound 12, 5-Hydroxy-8-(3-hydroxy-1-methylpiperidin-4-yl)-2-methyl-4-oxo-4H-chromen-7-yl 2-methylbenzoate]	12.8	42	6.53	7.19	13.4	18.6					
CN1CCC(c2c(O)cc(O)c3c(=O)cc(/C=C/c4c5ccccc5cc5ccccc45)oc23)C(O)C1 (centres unmarked) [Compound 29, 2-((E)-2-(Anthracen-10-yl)vinyl)-5,7-dihydroxy-8-(3-hydroxy-1-methylpiperidin-4-yl)-4H-chromen-4-one]	12.1	4.96	0	17	12.7	50.5					4.92
CN1CCC(c2c(O)cc(O)c3c(=O)cc(/C=C/c4ccccc4F)oc23)C(O)C1 (centres unmarked) [Compound 30, 2-(2-Fluorostyryl)-5,7-dihydroxy-8-(3-hydroxy-1-methylpiperidin-4-yl)-4H-chromen-4-one]	80.5	54.1	51	21.3	81.1	72.2	5.15	5.10	5.10	5.52	5.15

— US9932327B2, “Rohitukine analogs as cyclin-dependent kinase inhibitors and a process for the preparation thereof” (COUNCIL OF SCIENTIFIC AND INDUSTRIAL RESEARCH, priority 2013, dated 2018)
